Laboratory results as given in PubChem BioAssay AID687005 (Broad Institute, 2013).
Results filed as inconclusive are left out. Active and inactive are the calls of the source.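 The calls were made as follows: active = Compounds that reduce signal, with fitted half-maximal dose at or under twice the top valid tested dose; inconclusive = Poor fit, or flat curve losing 30 to 70% of signal; inactive = Potency past limit, flat within 30%, or opposite direction.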

Experiment: viability loss in HEK293T cells – cell-based, ATP luminescence, cherry-pick samples, cytotoxicity control, dose response (AID 687005)
Details: HEK293T viability, ATP luminescence (CellTiter-Glo), 48 h

Row | Structure (SMILES) | activity change, negative = cytotoxicity (at 26 µM (top of the series)) | activity change, negative = cytotoxicity (at 23.5 µM (top of the series))
1 | COc1cccc(S(=O)(=O)N2C[C@@H](O)COC[C@H]3O[C@H](CC(=O)Nc4ccccc4)CC[C@@H]32)c1 | -41.6% (inactive) | –
2 | CCC(=O)Nc1ccc2c(c1)OC[C@H](C)N(C(=O)c1ccc(F)cc1)C[C@@H](C)[C@@H](OC)CN(C)C2=O | 62.2% (inactive) | –
3 | CC(=O)N1[C@H](CO)[C@H](c2ccc(-c3ccccc3)cc2)[C@H]1CNC(=O)C1CC1 | -33.3% (inactive) | –
4 | C[C@H](CO)N1C[C@H](C)[C@@H](CN(C)C(=O)Nc2ccc(F)cc2)Oc2c(NS(=O)(=O)c3ccccc3)cccc2C1=O | – | -4.44% (inactive)
5 | C[C@H](CO)N1C[C@H](C)[C@@H](CN(C)C(=O)c2cccc(F)c2)Oc2cc(-c3cncnc3)ccc2S1(=O)=O | -22.6% (inactive) | –
6 | COCC(=O)N1C[C@H](C)[C@H](OC)CN(C)C(=O)c2ccc(NC(=O)NC(C)C)cc2OC[C@@H]1C | 37.2% (inactive) | –
7 | CNC(=O)C[C@@H]1CC[C@@H]2[C@H](COC[C@H](O)CN2S(=O)(=O)c2cccc(Cl)c2)O1 | 3.1% (inactive) | –
8 | CN1[C@H](C(=O)N2CCc3ccccc3C2)[C@@H](CO)[C@@H]2Cn3c(ccc(-c4cccnc4)c3=O)[C@@H]21 | 7.82% (inactive) | –
9 | COc1ccc(C#Cc2ccc3c(c2)O[C@H](CN(C)C(C)=O)[C@@H](C)CN([C@@H](C)CO)S3(=O)=O)cc1 | -74% (inactive) | –
10 | O=C(Nc1ccc(F)cc1)N1C[C@H]2[C@@H](c3ccccc31)[C@@H](CO)N2Cc1cocn1 | -16.4% (inactive) | –
11 | CN1c2ccc(Br)cc2[C@@H]2[C@@H](CCN2C(=O)Cc2cccnc2)[C@@H]1CO | – | -13.9% (inactive)
12 | C[C@@H]1CN([C@H](C)CO)C(=O)c2cc(/C=C/c3ccccc3)cnc2O[C@@H]1CN(C)S(C)(=O)=O | -0.658% (inactive) | –
13 | CCCC(=O)Nc1ccc2c(c1)OC[C@@H](C)N(Cc1cncnc1)C[C@@H](C)[C@@H](OC)CN(C)C2=O | 49.4% (inactive) | –
14 | CCCNC(=O)N1[C@H](CO)[C@@H](c2ccc(C3=CCCC3)cc2)[C@@H]1CN(C)C(C)=O | 37.6% (inactive) | –
15 | C[C@H](CO)N1C[C@H](C)[C@H](CN(C)C(=O)NC2CCCCC2)OCCCC[C@H](C)Oc2ccc(NC(=O)C3CCCCC3)cc2C1=O | 15% (inactive) | –
16 | CO[C@H]1CC[C@@H]2CCOc3c(C#N)cccc3C(=O)N(C)C[C@H](OC)[C@@H](C)C(=O)N(C)C[C@@H]1O2 | -0.939% (inactive) | –
17 | CCC(=O)N(C)C[C@@H]1Oc2cc(C#CC(C)(C)O)ccc2S(=O)(=O)N([C@@H](C)CO)C[C@H]1C | -26.1% (inactive) | –
18 | CC(C)NC(=O)Nc1ccc2c(c1)CC(=O)N([C@@H](C)CO)C[C@H](C)[C@H](CN(C)Cc1ccc3c(c1)OCO3)O2 | – | 26.2% (inactive)
19 | CO[C@@H]1CN(C)C(=O)c2cc(NS(=O)(=O)C3CCCCC3)ccc2OC[C@H](C)NC[C@@H]1C | 0.127% (inactive) | –
20 | Cc1cccc(C)c1NC(=O)C(C)N1CCCC1 (stereo not given) | -44.2% (inactive) | –
21 | CCCC(=O)Nc1ccc2c(c1)OC[C@H](C)N(Cc1ccccn1)C[C@H](C)[C@H](OC)CN(C)C2=O | 16.2% (inactive) | –
22 | Cc1cccc(C)c1NC(=O)C1(C)CCC(=O)N1CCCn1ccnc1 (stereo not given) | -14.5% (inactive) | –

Row | Structure (SMILES) | activity change, negative = cytotoxicity (at 26 µM (top of the series)) | activity change, negative = cytotoxicity (at 23.5 µM (top of the series))
23 | Cc1noc(C)c1S(=O)(=O)Nc1ccc2c(c1)C(=O)N([C@H](C)CO)C[C@H](C)[C@H](CN(C)Cc1ccncc1)O2 | 37.8% (inactive) | –
24 | CO[C@H]1CN(C)C(=O)c2cc(NS(=O)(=O)c3ccc(C)cc3)ccc2OC[C@@H](C)N(C(=O)NC(C)C)C[C@@H]1C | 26.2% (inactive) | –
25 | C[C@H](CO)N1C[C@H](C)[C@H](CN(C)C(=O)Nc2cccc3ccccc23)Oc2ccc(NC(=O)Cc3ccccc3)cc2CC1=O | – | 10.3% (inactive)
26 | CC=Cc1ccc2n(c1=O)C[C@H]1[C@H](CO)[C@@H](C(=O)N3CCc4ccccc4C3)N(C(=O)C3CC3)[C@@H]21 (mixture of isomers) | -9.72% (inactive) | –
27 | COc1cc2c(C(=O)N(C)c3cc(Cl)ccc3OC)cn(C)c(=O)c2cc1OC | -3.77% (inactive) | –
28 | C[C@@H]1CN([C@@H](C)CO)C(=O)c2cc(N(C)C)ccc2O[C@@H]1CN(C)C(=O)Nc1ccc(C(F)(F)F)cc1 | -29.4% (inactive) | –
29 | CCCC#Cc1cnc2c(c1)C(=O)N([C@@H](C)CO)C[C@H](C)[C@H](CN(C)C(=O)Nc1cccc(F)c1)O2 | 42% (inactive) | –
30 | CCCNC(=O)N(C)C[C@@H]1Oc2ncc(C#CC3CCCCC3)cc2C(=O)N([C@H](C)CO)C[C@@H]1C | -14% (inactive) | –
31 | O=C(C[C@H]1CC[C@@H](NC(=O)c2ccc3c(c2)OCO3)[C@@H](CO)O1)NCc1ccc(F)cc1 | -2.35% (inactive) | –
32 | CC1=C(C(=O)OCc2ccccc2)C(c2ccccc2)NC(=O)N1 (stereo not given) | 13.2% (inactive) | –
33 | Cc1cccc(-c2ccc([C@H]3[C@H](CO)N4CCCCN(C(=O)c5ccc6c(c5)OCO6)C[C@@H]34)cc2)c1 | 70.3% (inactive) | –
34 | COC(=O)N(C)C[C@H]1OCc2cn(nn2)CCCC(=O)N([C@@H](C)CO)C[C@@H]1C | -1.3% (inactive) | –
35 | C[C@@H]1CN([C@@H](C)CO)C(=O)c2cc(NC(=O)C3CCCCC3)ccc2O[C@@H](C)CCCCO[C@@H]1CN(C)C(=O)NC1CCCCC1 | 8.91% (inactive) | –
36 | C/C=C/c1ccc([C@@H]2[C@@H](CO)N3CCCCN(C(=O)Nc4ccc(OC)cc4)C[C@H]23)cc1 | 48.4% (inactive) | –
37 | CO[C@H]1CN(C)C(=O)c2cc(NS(=O)(=O)CC(F)(F)F)ccc2OC[C@@H](C)N(Cc2cccnc2)C[C@@H]1C | -36.3% (inactive) | –
38 | CC(C)COc1ccc(CNC(=S)NCc2ccccc2)cc1 | -1.46% (inactive) | –
39 | CC(C)NC(=O)Nc1ccc2c(c1)C(=O)N([C@H](C)CO)C[C@@H](C)[C@H](CN(C)C(=O)Nc1ccccc1)OCCCC[C@@H](C)O2 | 37.7% (inactive) | –
40 | CCCC(=O)Nc1ccc2c(c1)C(=O)N(C)C[C@H](OC)[C@@H](C)CN(C(=O)c1cccnc1)[C@@H](C)CO2 | 4.75% (inactive) | –
41 | C[C@H]1CN([C@@H](C)CO)C(=O)c2cc(Br)cnc2O[C@@H]1CN(C)Cc1ccccn1 | 22.1% (inactive) | –
42 | COc1ccccc1CNC(=S)NCc1ccc(Cl)cc1 | 13.5% (inactive) | –
43 | COc1ccc(NC(=O)N(C)C[C@@H]2OCCCC[C@@H](C)Oc3ccc(NC(=O)Nc4ccc5c(c4)OCO5)cc3C(=O)N([C@@H](C)CO)C[C@H]2C)cc1 | – | -17% (inactive)
44 | CO[C@@H]1CN(C)C(=O)c2cc(NS(=O)(=O)c3ccc(C)cc3)ccc2OC[C@@H](C)N(C)C[C@@H]1C | 5.91% (inactive) | –

Row | Structure (SMILES) | activity change, negative = cytotoxicity (at 26 µM (top of the series)) | activity change, negative = cytotoxicity (at 23.5 µM (top of the series))
45 | C=CCNC(=O)CN(c1ccc(F)cc1)S(=O)(=O)c1ccc(OC)cc1 | -6.42% (inactive) | –
46 | CCC(=O)N1[C@@H]2c3cccc(=O)n3C[C@H]1[C@H](CO)[C@H]2C(=O)NCc1ccccc1 | -16.7% (inactive) | –
47 | CNC[C@@H]1OCCCC[C@H](C)Oc2ccc(NC(=O)NC(C)C)cc2C(=O)N([C@H](C)CO)C[C@H]1C | 14.1% (inactive) | –
48 | COc1cccc(NC(=O)N2C[C@H](O)COC[C@H]3O[C@@H](CC(=O)NCc4ccccc4F)CC[C@@H]32)c1 | -23.2% (inactive) | –
49 | COC(=O)C1=C(C)N(Cc2ccc(Cl)cc2)C(=S)NC1c1ccc(F)cc1 (stereo not given) | -32.8% (inactive) | –
50 | CNC[C@@H]1OCCCC[C@H](C)Oc2ccc(NC(=O)c3ccccc3)cc2C(=O)N([C@@H](C)CO)C[C@@H]1C | 6.33% (inactive) | –
51 | O=C(C[C@H]1C[C@@H]2c3cc(NC(=O)c4cccnc4)ccc3O[C@@H]2[C@@H](CO)O1)NCCc1ccccc1 | -44.8% (inactive) | –
52 | CNC(=O)CSc1ncnc2c1cnn2-c1ccccc1 | 10.1% (inactive) | –
53 | O=C(NC1CCCCC1)N[C@H]1C=C[C@@H](CC(=O)N2CCOCC2)O[C@@H]1CO | 17.4% (inactive) | –
54 | N#C[C@@H]1[C@@H](c2ccccc2)[C@@H](CO)N1C(=O)Cc1ccccc1 | -0.39% (inactive) | –
55 | CC(C)c1ccc(S(=O)(=O)N2CCN(CC(=O)Nc3ccc4c(c3)OCO4)CC2)cc1 | -0.379% (inactive) | –
56 | C[C@@H]1CN([C@@H](C)CO)C(=O)c2cc(NS(=O)(=O)c3cn(C)cn3)ccc2O[C@@H]1CN(C)C(=O)Nc1cccc2ccccc12 | -15.2% (inactive) | –
57 | O=c1nc(-c2ccccc2)c2ccccc2[nH]1 | 1.46% (inactive) | –
58 | CNC(=O)C[C@@H]1CC[C@@H]2[C@H](COC[C@@H](O)CN2C(=O)Nc2ccc3c(c2)OCO3)O1 | 25% (inactive) | –
59 | CN1C(=O)c2cc(NC(=O)NC3CCCC3)ccc2OC[C@H]2O[C@@H](CC(=O)NC3CCC3)CC[C@@H]21 | 0.295% (inactive) | –
60 | O=C(NCC[C@H]1CC[C@H](NS(=O)(=O)c2ccc(F)cc2)[C@@H](CO)O1)c1ccc2c(c1)OCO2 | -2.6% (inactive) | –
61 | CN(C[C@H]1N[C@@H](CO)[C@H]1c1ccc(-c2cccc(F)c2)cc1)S(C)(=O)=O | 61.6% (inactive) | –
62 | CC(=O)c1cccc(NC(=S)NC2CCCCC2)c1 | -7.11% (inactive) | –
63 | C[C@@H]1CCCCO[C@@H](CN(C)C(=O)Nc2cccc3ccccc23)[C@@H](C)CN([C@H](C)CO)C(=O)c2cc(NS(=O)(=O)c3ccccc3)ccc2O1 | 6.51% (inactive) | –
64 | COc1ccc(NC(=O)N(C)C[C@@H]2OCCCC[C@H](C)Oc3ccc(NC(=O)Nc4ccc5c(c4)OCO5)cc3C(=O)N([C@H](C)CO)C[C@@H]2C)cc1 | 4.66% (inactive) | –
65 | Cc1ccccc1NC(=O)C(NC1CCCCC1)C(C)C (stereo not given) | -12.2% (inactive) | –
